Values quoted from earlier work in patent US10028918B2, “Nanoparticle delivery vehicle for S-nitroso-N-acetyl cysteine and uses thereof” (ALBERT EINSTEIN COLLEGE OF MEDICINE, INC., priority 2012, dated 2018).

System: rats
Settings: normal and acute hypertension induced rats

CC(=O)N[C@@H](CSN=O)C(=O)O [NAC-SNO, S-nitroso-N-acetyl cysteine]
Duration of vascular effect: ~9 min
